“Also recorded” adds a separate entry of the source.
Legend:
Arabidopsis thaliana [1] = test: MOA1 biochemical (metabolite) profiling by LC-MS and GC-MS; conditions: for stress-related metabolites: within one hour after spraying
[2] = system: Arabidopsis thaliana plants; test: SOA1 phenotypic analysis of herbicide-treated plants; type: in vivo; conditions: for characteristic symptoms (phenotype): herbicide-treated plants; for Symptom Class: three-week-old plants, foliar spray
Arabidopsis thaliana [3] = test: MOA1 gene expression profiling (22,000-gene microarray); conditions: for No. of Lethal Genes Altered: regulated genes compared to internal list of essential genes
[4] = system: Saccharomyces cerevisiae wild type strain BY4743; test: AF1 yeast metabolite analysis by GC-MS and LC-MS; type: cell-based; conditions: for # Compounds perturbed: 2×MIC, two hours
[5] = system: Saccharomyces cerevisiae wild type strain BY4743; test: AF1 combined gene expression and metabolite mapping to KEGG reactions and pathways; type: cell-based
Excerpt: In AF1, two different technologies were utilized: gene expression analysis (for examination of mRNA expression) and metabolite analysis. […] As noted previously, existing metabolic databases may be helpful in practicing the methods and systems of the present invention, but many databases include limitations that make their use in data analysis and pathway mapping less than straightforward. […] This caveat to KEGG makes it difficult to pinpoint the correct pathway when attempting to link a gene to a specific pathway. […] The pathway score indicates how meaningful the mapping is, or how likely it is to be correctly indicative of the pathway involved in the perturbation under examination. The method provides a pathway score based on perturbation levels of genes and/or compounds and the information content of each gene and/or compound in the pathway, i.e., a pathway score indicates the extent to which other pathways are mapped to a gene/compound. […] Degree of perturbation can be calculated, for example, based on a number of standard deviations from a norm, and included in an equation such as the one shown above, so that not only the number of pathways is taken into account, but also accounts for the amount of gene transcript or compound present as compared to a control. […] Of the 676 compounds under consideration, 77 were detected in the AF1 samples. […]

[6] = system: Saccharomyces cerevisiae wild type strain BY4743; test: AF1 yeast gene expression analysis (microarray); type: cell-based; conditions: p < 0.05, KEGG mapping
Magnaporthe grisea = type: cell-based
[7] = numeric value standardized to mock treated

CC(C)OC(=O)Nc1cccc(Cl)c1 [Chloropropham]
stress-related metabolites (Arabidopsis thaliana [1]): neither butylate nor chlorpropham treatment resulted in many changes

CSc1nnc(C(C)(C)C)c(=O)n1N [Metribuzin]
characteristic symptoms (phenotype) [2]: rapid and widespread leaf necrosis

CC(C)N1C(=O)c2ccccc2NS1(=O)=O [Bentazon]
characteristic symptoms (phenotype) [2]: rapid and widespread leaf necrosis

CCSC(=O)N(CC(C)C)CC(C)C [Butylate]
stress-related metabolites (Arabidopsis thaliana [1]): neither butylate nor chlorpropham treatment resulted in many changes

COC(=O)c1cc(Oc2ccc(Cl)cc2Cl)ccc1[N+](=O)[O-] [Bifenox]
characteristic symptoms (phenotype) [2]: Necrotic leaf flecks

COC(=O)NS(=O)(=O)c1ccc(N)cc1 [Asulam]
No. of Lethal Genes Altered (Arabidopsis thaliana [3]): 5

C[n+]1ccc(-c2cc[n+](C)cc2)cc1 [Paraquat]
characteristic symptoms (phenotype) [2]: rapid and widespread leaf necrosis
Symptom Class [2]: 7

CS(=O)(=O)c1cc(C(F)(F)F)ccc1C(=O)c1cnoc1C1CC1 [Isoxaflutole]
Alpha-tocopherol levels relative to the control (Arabidopsis thaliana [1]; early time points): not significantly changed
tyrosine and phenylalanine relative to the control (Arabidopsis thaliana [1]; early time points (up to 1 hour)): up-regulated; also recorded: began to accumulate
alterations in the expression of genes involved in the homogentisate biosynthetic pathway (Arabidopsis thaliana [3]; 1 hr): not observed
No. of Lethal Genes Altered (Arabidopsis thaliana [3]): 15

CP(=O)(O)CCC(N)C(=O)O (centres unmarked) [Glufosinate]
No. of Lethal Genes Altered (Arabidopsis thaliana [3]): 10
characteristic symptoms (phenotype) [2]: Chlorosis and leaf curling
tMic Dev. [2, 7]: 1
Symptom Class [2]: 3

C[C@@H]1[C@H](O)[C@@H](C)/C=C/C=C/C=C/C=C/C=C/C=C/C=C/[C@H](O[C@@H]2O[C@H](C)[C@@H](O)[C@H](N)[C@@H]2O)C[C@@H]2O[C@](O)(C[C@@H](O)C[C@@H](O)[C@H](O)CC[C@@H](O)C[C@@H](O)CC(=O)O[C@H]1C)C[C@H](O)[C@H]2C(=O)O [Amphoteracin B]
# Compounds perturbed ([4]; P < 0.05): 16
# Compounds perturbed ([4]; P < 0.1): 21
Fold Change of campesterol ([4]; platform GC): 0
Fold Change of desmosterol ([4]; platform GC): 0
Fold Change of octadecanoic acid ([4]; platform GC): 0.21
Fold Change of abscisic acid ([4]; platform LC): 0
Fold Change of adenosine ([4]; platform LC): 0
Fold Change of riboflavin ([4]; platform LC): 0
Fold Change of 4-methylcatechol ([4]; platform nLC): 0
Fold Change of 5hydroxyLtryptophan ([4]; platform nLC): 0
Fold Change of 6-benzylaminopurine ([4]; platform nLC): 0
Fold Change of NacetylDglucosamine ([4]; platform nLC): 0
Fold Change of NacetylLornithine ([4]; platform nLC): 0
Fold Change of abscisic acid ([4]; platform nLC): 0
Fold Change of adenine ([4]; platform nLC): 0
Fold Change of adenosine ([4]; platform nLC): 0
Fold Change of anthranilic acid ([4]; platform nLC): 0
Fold Change of argininosuccinate ([4]; platform nLC): 0
Fold Change of benzoic acid ([4]; platform nLC): 0
Fold Change of catechol ([4]; platform nLC): 0
Fold Change of cinnamic acid ([4]; platform nLC): 0
Fold Change of citricanoic/itaconi ([4]; platform nLC): 0
Fold Change of coumaric acid ([4]; platform nLC): 0
Fold Change of cytosine ([4]; platform nLC): 0
Fold Change of diaminopimelic acid ([4]; platform nLC): 0
Fold Change of dihydrofolic acid ([4]; platform nLC): 0
Fold Change of estrone ([4]; platform nLC): 0
Fold Change of farnesol ([4]; platform nLC): 0
Fold Change of folic acid ([4]; platform nLC): 0
Fold Change of gibberellic ([4]; platform nLC): 0
Fold Change of glutamine/lysine ([4]; platform nLC): 0.07919
Fold Change of guanine ([4]; platform nLC): 0
Fold Change of histidine ([4]; platform nLC): 0
Fold Change of homogentisic/uric ([4]; platform nLC): 0
Fold Change of hydrocortisone ([4]; platform nLC): 0
Fold Change of indole3pyruvic acid ([4]; platform nLC): 0
Fold Change of jasmonic acid ([4]; platform nLC): 0
Fold Change of kinetin ([4]; platform nLC): 0
Fold Change of luteolin ([4]; platform nLC): 0
Fold Change of malonic acid ([4]; platform nLC): 0
Fold Change of methionine ([4]; platform nLC): 0
Fold Change of phenylpyruvic acid ([4]; platform nLC): 0
Fold Change of phosphoenolpyruvate ([4]; platform nLC): 0
Fold Change of pinitol ([4]; platform nLC): 0
Fold Change of porphobilinogen ([4]; platform nLC): 0
Fold Change of retinoic acid ([4]; platform nLC): 0
Fold Change of salicylic/HObenzoic ([4]; platform nLC): 0
Fold Change of shikimic acid ([4]; platform nLC): 0
Fold Change of sinapinic acid ([4]; platform nLC): 0
Fold Change of thymine ([4]; platform nLC): 0
Fold Change of urocanic acid ([4]; platform nLC): 0
Fold Change of xanthosineDiH2O ([4]; platform nLC): 0
Fold Change of zeatin ([4]; platform nLC): 0
Fold Change of 4-aminobenzoic acid ([4]; platform pLC): 0
Fold Change of 4-methylcatechol ([4]; platform pLC): 0
Fold Change of 5hydroxyLtryptophan ([4]; platform pLC): 0
Fold Change of 6benzylaminopurine ([4]; platform pLC): 0
Fold Change of NacetylDglucosamine ([4]; platform pLC): 0
Fold Change of NacetylLglutamate ([4]; platform pLC): 0
Fold Change of allantoic acid ([4]; platform pLC): 0
Fold Change of anthranilic acid ([4]; platform pLC): 0
Fold Change of argininosuccinate ([4]; platform pLC): 0
Fold Change of biotin ([4]; platform pLC): 0
Fold Change of caffeine ([4]; platform pLC): 0
Fold Change of citric acid TME ([4]; platform pLC): 0
Fold Change of cytidine ([4]; platform pLC): 0
Fold Change of cytosine ([4]; platform pLC): 0
Fold Change of diaminopimelic acid ([4]; platform pLC): 0
Fold Change of dihydrofolic acid ([4]; platform pLC): 0
Fold Change of dipicolinic acid ([4]; platform pLC): 0
Fold Change of folic acid ([4]; platform pLC): 0
Fold Change of glucosamine ([4]; platform pLC): 0
Fold Change of glucosamine6PO4 ([4]; platform pLC): 0
Fold Change of histidine ([4]; platform pLC): 0
Fold Change of hydrocortisone ([4]; platform pLC): 0
Fold Change of itaconic acid dimes ([4]; platform pLC): 0
Fold Change of kinetin ([4]; platform pLC): 0
Fold Change of luteolin ([4]; platform pLC): 0
Fold Change of niacinamide ([4]; platform pLC): 0
Fold Change of nopaline ([4]; platform pLC): 0
Fold Change of phosphoenolpyruvate ([4]; platform pLC): 0
Fold Change of progesterone ([4]; platform pLC): 0
Fold Change of sugar-phosphate ([4]; platform pLC): 0
Fold Change of thiamine ([4]; platform pLC): 0
Fold Change of thymine ([4]; platform pLC): 0
Fold Change of tryptophan ([4]; platform pLC): 0
Fold Change of urocanic acid ([4]; platform pLC): 0
Fold Change of xanthosine(diH2O) ([4]; platform pLC): 0
Fold Change of zeatin ([4]; platform pLC): 0
Number of Reactions Having an Enzyme and at Least One Compound Perturbed [5]: 54
# Pathways Affected by at Least One Gene [6]: 97

CCc1cnc(C2=NC(C)(C(C)C)C(=O)N2)c(C(=O)O)c1 (centres unmarked) [Imazethapyr]
characteristic symptoms (phenotype) [2]: anthocyanin accumulation in the older leaves accompanied by chlorosis of the newly emerging leaves

CC(=O)N1CCN(c2ccc(OCC3COC(Cn4ccnc4)(c4ccc(Cl)cc4Cl)O3)cc2)CC1 (centres unmarked) [Ketoconazole]
# Compounds perturbed ([4]; P < 0.1): 15

O=C(O)c1ccccc1C(=O)Nc1cccc2ccccc12 [Naptalam]
No. of Lethal Genes Altered (Arabidopsis thaliana [3]): 3

COc1nc(C)nc(NC(=O)NS(=O)(=O)c2ccccc2Cl)n1 [Chlorsulfuron]
No. of Lethal Genes Altered (Arabidopsis thaliana [3]): 8
characteristic symptoms (phenotype) [2]: anthocyanin accumulation in the older leaves accompanied by chlorosis of the newly emerging leaves

Nc1nc[nH]n1 [Amitrole]
characteristic symptoms (phenotype) [2]: leaf bleaching and leaf enlargement

CC[C@@H]([C@H](C)O)n1ncn(-c2ccc(N3CCN(c4ccc(OC[C@@H]5CO[C@@](Cn6cncn6)(c6ccc(F)cc6F)C5)cc4)CC3)cc2)c1=O [Posaconazoie]
Fold Change of luteolin ([4]; LC): 0

CN(C)C(=O)Nc1ccc(Cl)c(Cl)c1 [Diuron]
characteristic symptoms (phenotype) [2]: rapid and widespread leaf necrosis
newLeafAnthocyanins Dev. [2, 7]: newLeafAnthocyanins 0
tMic Dev. [2, 7]: 1
Symptom Class [2]: 7

CC[C@@H]([C@H](C)O)n1ncn(-c2ccc(N3CCN(c4ccc(OC[C@@H]5CO[C@@](Cn6cncn6)(c6ccc(F)cc6F)C5)cc4)CC3)cc2)c1=O [Posaconazote]
Fold Change, porphobilinogen ([4]; detected metabolite porphobilinogen, platform nLC): 0

O=C(O)COc1ccc(Cl)cc1Cl [2,4-D]
tMic Dev. [2, 7]: 2
Symptom Class [2]: 5

CCNc1nc(Cl)nc(NC(C)C)n1 [Atrazine]
characteristic symptoms (phenotype) [2]: rapid and widespread leaf necrosis

c1cc[n+]2c(c1)-c1cccc[n+]1CC2 [Diquat]
characteristic symptoms (phenotype) [2]: rapid and widespread leaf necrosis
tMic Dev. [2, 7]: 2
Symptom Class [2]: 7

O=C(O)CNCP(=O)(O)O [Glyphosate]
Number of Metabolites Changed: Total # (Arabidopsis thaliana [1]; 20 min, p < 0.05): 4
tyrosine (downstream of SOA) relative to the control (Arabidopsis thaliana [1]; after one hour): decreased
characteristic symptoms (phenotype) [2]: anthocyanin accumulation in the older leaves accompanied by chlorosis of the newly emerging leaves
tMic Dev. [2, 7]: 2
Symptom Class [2]: 4
growth inhibition with aromatic amino acids included in the media (Magnaporthe grisea; 1.0 mg/ml): remediated
growth of M. grisea (Tier 4) (Magnaporthe grisea; ammonium or glutamine as nitrogen source): Little growth defect

O=C(O)c1cc(Oc2ccc(C(F)(F)F)cc2Cl)ccc1[N+](=O)[O-] [Acifluorfen]
characteristic symptoms (phenotype) [2]: Necrotic leaf flecks

CC(C)C1(C)N=C(c2ncccc2C(=O)O)NC1=O (centres unmarked) [Imazapyr]
characteristic symptoms (phenotype) [2]: anthocyanin accumulation in the older leaves accompanied by chlorosis of the newly emerging leaves
